Columns and labels:
Format in all cases: biochemical
MMP-9 = MMP-9 (Homo sapiens, UniProt P14780); assay: MMP compound screening with Fluorimetric SensoLyte 390 Generic MMP Activity Kit, recombinant MMP-9
Procedure: (§1) The activities were determined using Fluorimetric SensoLyte® 390 Generic MMP Activity Kit from Anaspec (cat # 72202). This assay kit can detect the activity of several MMPs such as MMP-1, 2, 7, 8, 9, 13, 14,15,16 and 24.
(§2) For screening MMP compounds, activated 2 nM of recombinant MMP-2, 8, 9 or 13 are pre-incubated with MMP compound (inhibitor) for 30 min at 37°C. The substrate is added and the inhibition of MMP activity is expressed as % of total activity (without the inhibitor incubation).

MMP-2 = target: T1, MMP-2 (Homo sapiens, UniProt P08253); assay: MMP compound screening with Fluorimetric SensoLyte 390 Generic MMP Activity Kit, recombinant MMP-2
T1 sequence (P08253 110-660): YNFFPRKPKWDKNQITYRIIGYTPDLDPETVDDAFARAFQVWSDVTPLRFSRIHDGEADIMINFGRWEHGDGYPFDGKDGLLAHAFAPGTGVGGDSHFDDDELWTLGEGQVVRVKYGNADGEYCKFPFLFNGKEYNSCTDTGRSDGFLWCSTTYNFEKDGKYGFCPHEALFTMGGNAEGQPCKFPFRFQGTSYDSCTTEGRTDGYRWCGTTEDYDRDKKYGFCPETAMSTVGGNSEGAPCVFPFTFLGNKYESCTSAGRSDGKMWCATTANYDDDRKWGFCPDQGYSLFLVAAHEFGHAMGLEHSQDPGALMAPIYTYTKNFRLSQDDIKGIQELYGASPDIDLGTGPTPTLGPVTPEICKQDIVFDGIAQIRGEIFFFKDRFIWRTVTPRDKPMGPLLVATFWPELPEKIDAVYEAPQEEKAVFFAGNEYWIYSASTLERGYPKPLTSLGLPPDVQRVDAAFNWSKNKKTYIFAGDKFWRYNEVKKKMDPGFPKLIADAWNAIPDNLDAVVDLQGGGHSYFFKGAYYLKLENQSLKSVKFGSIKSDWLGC
Procedure: as §1, §2

MMP13 = MMP13 (Homo sapiens, UniProt P45452); assay: MMP compound screening with Fluorimetric SensoLyte 390 Generic MMP Activity Kit, recombinant MMP-13
Procedure: as §1, §2

MMP-8 = MMP-8 (Homo sapiens, UniProt P22894); assay: MMP compound screening with Fluorimetric SensoLyte 390 Generic MMP Activity Kit, recombinant MMP-8
Sequence of MMP-8 (P22894 101-467, species assumed): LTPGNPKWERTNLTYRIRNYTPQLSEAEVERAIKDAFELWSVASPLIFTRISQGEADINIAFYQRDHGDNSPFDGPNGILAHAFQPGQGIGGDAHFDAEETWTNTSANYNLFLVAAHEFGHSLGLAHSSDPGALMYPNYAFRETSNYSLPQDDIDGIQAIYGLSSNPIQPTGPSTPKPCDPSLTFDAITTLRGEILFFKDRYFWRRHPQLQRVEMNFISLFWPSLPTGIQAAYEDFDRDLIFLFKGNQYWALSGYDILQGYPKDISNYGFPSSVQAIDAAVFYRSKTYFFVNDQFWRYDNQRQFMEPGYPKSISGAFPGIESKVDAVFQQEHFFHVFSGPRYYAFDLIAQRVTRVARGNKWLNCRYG
Procedure: as §1, §2

Sequence of MMP-9 (P14780 107-707 limits assumed, species assumed): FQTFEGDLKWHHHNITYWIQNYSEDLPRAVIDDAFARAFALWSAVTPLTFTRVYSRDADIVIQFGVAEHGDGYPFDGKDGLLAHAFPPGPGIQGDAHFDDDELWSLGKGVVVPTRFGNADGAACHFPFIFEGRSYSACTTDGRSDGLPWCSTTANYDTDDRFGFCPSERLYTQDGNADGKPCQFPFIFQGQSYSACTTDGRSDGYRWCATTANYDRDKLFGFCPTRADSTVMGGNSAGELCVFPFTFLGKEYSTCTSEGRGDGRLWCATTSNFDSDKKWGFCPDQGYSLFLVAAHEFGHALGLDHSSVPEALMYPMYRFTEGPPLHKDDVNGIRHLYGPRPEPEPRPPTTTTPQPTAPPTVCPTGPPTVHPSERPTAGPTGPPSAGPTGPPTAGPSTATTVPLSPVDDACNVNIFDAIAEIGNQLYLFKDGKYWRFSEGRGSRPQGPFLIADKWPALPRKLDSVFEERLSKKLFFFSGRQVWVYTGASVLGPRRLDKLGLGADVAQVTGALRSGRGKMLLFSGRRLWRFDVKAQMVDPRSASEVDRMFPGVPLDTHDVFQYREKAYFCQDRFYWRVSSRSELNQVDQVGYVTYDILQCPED

inhibition at 0.1 µM (MMP-9; 0.1uM): 12% | inhibition at 1 µM (MMP-9; 1uM): 17% | inhibition at 0.1 µM (MMP-2; 0.1uM): 0% | inhibition at 1 µM (MMP-2; 1uM): 0% | inhibition at 0.1 µM (MMP13; 0.1uM): 0% | inhibition at 1 µM (MMP13; 1uM): 7% | inhibition at 0.1 µM (MMP-8; 0.1uM): 0% | inhibition at 1 µM (MMP-8; 1uM): 1%
SMILES: CCN1/C(=C/C=C/C=C/C2=[N+](CCCCCC(N)=O)c3ccc4c(S(=O)(=O)O)cc(S(=O)(=O)O)cc4c3C2(C)C)C(C)(C)c2c1ccc1c(S(=O)(=O)[O-])cc(S(=O)(=O)O)cc21 [Cy5.5]

Reference: patent publication EP2644601A1, “Compounds with matrix-metalloproteinase inhibitory activity and imaging agents thereof” (Westfälische Wilhelms-Universität Münster, priority 2012, dated 2013)
